Assay results taken from BindingDB's records for doi:10.7270/Q2N58K09 (The Scripps Research Institute Molecular Screening Center, 2013).

Target: Huntingtin (Homo sapiens, UniProt P42858)
Sequence (P42858 whole entry): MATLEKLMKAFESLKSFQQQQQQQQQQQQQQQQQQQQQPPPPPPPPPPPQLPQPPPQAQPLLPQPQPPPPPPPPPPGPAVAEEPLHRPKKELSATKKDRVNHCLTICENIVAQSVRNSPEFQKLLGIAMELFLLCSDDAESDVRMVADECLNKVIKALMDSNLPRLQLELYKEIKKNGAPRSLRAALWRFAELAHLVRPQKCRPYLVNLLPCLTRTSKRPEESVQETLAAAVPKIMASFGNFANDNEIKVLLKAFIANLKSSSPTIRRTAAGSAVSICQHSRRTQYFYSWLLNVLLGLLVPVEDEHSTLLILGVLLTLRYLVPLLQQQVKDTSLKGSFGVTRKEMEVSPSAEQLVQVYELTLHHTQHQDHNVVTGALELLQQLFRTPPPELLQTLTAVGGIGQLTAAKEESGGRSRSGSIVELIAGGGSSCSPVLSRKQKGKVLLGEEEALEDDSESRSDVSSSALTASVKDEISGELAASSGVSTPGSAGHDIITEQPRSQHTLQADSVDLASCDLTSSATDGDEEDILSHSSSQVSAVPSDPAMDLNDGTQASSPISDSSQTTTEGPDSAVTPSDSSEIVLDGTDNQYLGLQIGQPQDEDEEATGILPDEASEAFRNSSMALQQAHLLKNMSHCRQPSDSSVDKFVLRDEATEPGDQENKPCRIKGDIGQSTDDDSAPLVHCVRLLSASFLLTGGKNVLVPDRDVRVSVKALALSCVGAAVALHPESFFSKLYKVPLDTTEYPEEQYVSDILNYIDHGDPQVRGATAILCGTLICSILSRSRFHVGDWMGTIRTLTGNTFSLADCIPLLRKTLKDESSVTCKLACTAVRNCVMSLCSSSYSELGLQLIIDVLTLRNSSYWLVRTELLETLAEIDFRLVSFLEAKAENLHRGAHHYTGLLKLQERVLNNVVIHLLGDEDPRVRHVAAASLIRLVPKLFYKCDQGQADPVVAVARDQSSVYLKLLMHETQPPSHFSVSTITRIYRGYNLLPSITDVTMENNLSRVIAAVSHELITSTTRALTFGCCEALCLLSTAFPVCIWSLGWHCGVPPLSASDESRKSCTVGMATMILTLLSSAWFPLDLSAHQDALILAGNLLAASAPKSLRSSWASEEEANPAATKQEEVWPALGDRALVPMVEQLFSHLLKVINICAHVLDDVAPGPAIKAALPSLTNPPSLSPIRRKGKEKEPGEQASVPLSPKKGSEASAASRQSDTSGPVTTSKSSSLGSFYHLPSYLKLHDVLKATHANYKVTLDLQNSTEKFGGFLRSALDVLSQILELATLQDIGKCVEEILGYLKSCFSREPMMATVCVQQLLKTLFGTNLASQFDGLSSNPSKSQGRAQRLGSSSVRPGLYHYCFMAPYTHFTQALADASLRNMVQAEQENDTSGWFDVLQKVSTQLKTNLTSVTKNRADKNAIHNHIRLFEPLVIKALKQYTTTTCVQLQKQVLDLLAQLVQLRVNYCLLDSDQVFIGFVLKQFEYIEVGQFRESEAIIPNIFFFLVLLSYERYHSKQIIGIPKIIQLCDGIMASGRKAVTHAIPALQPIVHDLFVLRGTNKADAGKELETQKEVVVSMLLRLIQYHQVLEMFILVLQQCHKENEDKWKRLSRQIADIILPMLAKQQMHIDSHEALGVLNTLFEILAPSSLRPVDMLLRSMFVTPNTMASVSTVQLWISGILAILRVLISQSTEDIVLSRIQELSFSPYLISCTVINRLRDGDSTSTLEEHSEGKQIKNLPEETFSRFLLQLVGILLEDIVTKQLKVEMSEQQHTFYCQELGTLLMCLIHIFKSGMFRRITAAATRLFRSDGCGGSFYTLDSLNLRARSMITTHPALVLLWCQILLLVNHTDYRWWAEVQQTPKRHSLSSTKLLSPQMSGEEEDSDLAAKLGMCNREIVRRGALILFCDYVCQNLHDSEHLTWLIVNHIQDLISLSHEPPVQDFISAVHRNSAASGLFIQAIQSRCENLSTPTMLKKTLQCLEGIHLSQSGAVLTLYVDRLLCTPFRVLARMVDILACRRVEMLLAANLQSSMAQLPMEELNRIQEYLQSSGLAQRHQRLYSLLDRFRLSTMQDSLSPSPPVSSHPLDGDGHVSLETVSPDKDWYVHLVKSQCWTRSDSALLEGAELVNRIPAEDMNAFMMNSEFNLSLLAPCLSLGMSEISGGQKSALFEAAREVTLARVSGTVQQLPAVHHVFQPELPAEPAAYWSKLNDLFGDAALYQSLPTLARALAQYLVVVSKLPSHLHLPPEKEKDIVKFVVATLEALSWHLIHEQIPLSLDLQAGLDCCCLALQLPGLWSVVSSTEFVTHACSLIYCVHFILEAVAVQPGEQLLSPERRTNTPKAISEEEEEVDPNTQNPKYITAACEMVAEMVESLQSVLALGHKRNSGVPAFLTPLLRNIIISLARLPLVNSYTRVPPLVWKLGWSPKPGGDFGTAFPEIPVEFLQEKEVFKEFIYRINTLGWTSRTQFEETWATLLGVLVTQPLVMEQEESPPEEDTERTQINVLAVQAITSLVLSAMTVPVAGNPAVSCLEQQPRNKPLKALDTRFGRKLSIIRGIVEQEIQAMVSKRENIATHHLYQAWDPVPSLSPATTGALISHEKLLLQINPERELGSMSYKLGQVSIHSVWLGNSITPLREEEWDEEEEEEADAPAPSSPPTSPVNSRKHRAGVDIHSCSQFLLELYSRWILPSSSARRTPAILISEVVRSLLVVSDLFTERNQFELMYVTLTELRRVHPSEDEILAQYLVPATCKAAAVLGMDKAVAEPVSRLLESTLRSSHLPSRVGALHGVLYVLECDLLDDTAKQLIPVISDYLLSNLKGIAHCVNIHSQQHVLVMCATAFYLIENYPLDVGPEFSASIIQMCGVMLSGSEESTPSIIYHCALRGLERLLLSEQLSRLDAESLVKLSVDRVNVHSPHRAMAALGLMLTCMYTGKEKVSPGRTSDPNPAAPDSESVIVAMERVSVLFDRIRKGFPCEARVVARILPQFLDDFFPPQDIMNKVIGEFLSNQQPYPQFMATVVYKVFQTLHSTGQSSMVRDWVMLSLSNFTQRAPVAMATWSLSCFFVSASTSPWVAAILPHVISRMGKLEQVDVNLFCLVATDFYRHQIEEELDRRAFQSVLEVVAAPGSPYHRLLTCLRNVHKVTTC

SMILES	IC50
O=C1C(=O)N(c2nc3ccc(Cl)cc3s2)C(c2ccco2)C1C(=O)c1ccco1 (stereo unspecified)	987 nM
N#CC(C(=O)Nc1ccc(Cl)cc1)C(=S)Nc1ccccc1 (stereo unspecified) [(Z)-3-anilino-N-(4-chlorophenyl)-2-cyano-3-sulfanylprop-2-enamide]	6140 nM
N=C(NN=Cc1cccs1)Sc1cc(O)n(-c2ccc(Br)cc2)c1O [[1-(4-bromophenyl)-2,5-dioxopyrrolidin-3-yl] N'-[(E)-thiophen-2-ylmethylideneamino]carbamimidothioate]	8270 nM
Cc1cc(N2C(=O)C(=O)C(C(=O)c3cc4ccccc4o3)C2c2cccc(Cl)c2)no1 (stereo unspecified) [3-(1-benzofuran-2-ylcarbonyl)-2-(3-chlorophenyl)-1-(5-methyl-1,2-oxazol-3-yl)-4-oxidanyl-2H-pyrrol-5-one]	1190 nM
COC1=CC(=Cc2c(-c3ccccc3)[nH]n(-c3ccc(NC(C)=O)cc3)c2=O)C=CC1=O [SMR000299432]	2900 nM
CC(=O)C1C(=O)C(=O)N(c2cc(C(C)(C)C)on2)C1c1ccc(Br)cc1 (stereo unspecified)	2490 nM
N#CC1C(=O)NC(c2ccc(-c3cc(Cl)ccc3Cl)o2)N(c2ccccc2)C1=S (stereo unspecified) [MLS000592167]	1470 nM
O=C(O)c1ccc(-n2c(O)cc(SC(=Nc3ccc(F)cc3)NCc3ccc4c(c3)OCO4)c2O)cc1 [SMR000313486]	2890 nM
Cc1[nH]n(C(N)=S)c(=O)c1N=Nc1c(Br)cc(Br)cc1Br [3-methyl-5-oxo-4-[(2,4,6-tribromophenyl)diazenyl]-4H-pyrazole-1-carbothioamide]	5730 nM
CC(C)c1ccc(C2c3[nH]c4ccccc4c3Cc3c(O)n(-c4ccccc4C(=O)N4CCC[C@@H]4C(=O)O)c(=O)n32)cc1 (stereo partly specified)	2840 nM
CC(C)c1ccc(C2c3[nH]c4ccccc4c3Cc3c(O)n(-c4ccccc4C(=O)N4CCC[C@H]4C(=O)O)c(=O)n32)cc1 (stereo partly specified)	3350 nM
C=c1c(C#N)c2[nH]c(N)c(C#N)c(C)c-2c1=Cc1ccc(-c2ccccc2C(=O)O)o1 [SMR000277284]	2570 nM
N#CC1=c2sc(=Cc3ccco3)c(=O)n2C(=N)C(C#N)C1c1ccco1 (stereo unspecified) [5-amino-7-(furan-2-yl)-2-(furan-2-ylmethylidene)-3-oxo-7H-[1,3]thiazolo[3,2-a]pyridine-6,8-dicarbonitrile]	5380 nM
COc1ccc2nc(N3C(=O)C(=O)C(C(=O)c4ccco4)C3c3ccc(OC)c(OC)c3)sc2c1 (stereo unspecified) [2-(3,4-dimethoxyphenyl)-3-(furan-2-carbonyl)-4-hydroxy-1-(6-methoxy-1,3-benzothiazol-2-yl)-2H-pyrrol-5-one]	2040 nM
Cc1ccc2nc(N3C(=O)C(=O)C(C(=O)c4ccco4)C3c3ccc(C)o3)sc2c1 (stereo unspecified) [3-[2-furanyl(oxo)methyl]-4-hydroxy-1-(6-methyl-1,3-benzothiazol-2-yl)-2-(5-methyl-2-furanyl)-2H-pyrrol-5-one;oxalic acid]	624 nM
CCOC(=O)C1=C(C)N=C(SCc2cc(=O)[nH][nH]2)C(C#N)C1c1cccs1 (stereo unspecified) [5-cyano-2-methyl-6-[(5-oxo-1,2-dihydropyrazol-3-yl)methylthio]-4-thiophen-2-yl-1,4-dihydropyridine-3-carboxylic acid ethyl ester]	7400 nM
CCCOc1cccc(C2C(C(=O)c3ccc(C)o3)C(=O)C(=O)N2c2nc(C)c(C(C)=O)s2)c1 (stereo unspecified)	4060 nM
Oc1ccc(CN=Nc2ccnc3cc(Cl)ccc23)c(O)c1O [SMR000590557]	2500 nM
Cc1ccc2c(c1)C(=NNc1cccc(C(=O)O)c1)C(=O)N2C [3-[(2Z)-2-(1,5-dimethyl-2-oxidanylidene-indol-3-ylidene)hydrazinyl]benzoic acid]	5070 nM
CC(=NNC(=N)Sc1cc(O)n(-c2cccc(Cl)c2)c1O)c1cccs1 [MLS000579124]	5190 nM
CCCOc1ccc(-n2c(O)cc(SC(=N)NN=C(C)c3cccs3)c2O)cc1 [2,5-dioxo-1-(4-propoxyphenyl)-3-pyrrolidinyl 2-[1-(2-thienyl)ethylidene]hydrazinecarbimidothioate]	7760 nM
COC(=O)c1sc(N2C(=O)C(=O)C(C(=O)c3ccc(C)o3)C2c2ccc([N+](=O)[O-])cc2)nc1C (stereo unspecified) [methyl 2-[4-hydroxy-3-(5-methylfuran-2-carbonyl)-2-(4-nitrophenyl)-5-oxo-2H-pyrrol-1-yl]-4-methyl-1,3-thiazole-5-carboxylate]	636 nM
CCc1nnc(NS(=O)(=O)c2ccc(N=CCC(=O)c3ccc(C)cc3)cc2)s1 [SMR000211931]	1900 nM
CCN(CC)C(=O)NC1CC2CCCC(C1)N2Cc1ccccc1 (stereo unspecified) [1,1-diethyl-3-[9-(phenylmethyl)-9-azabicyclo[3.3.1]nonan-3-yl]urea]	2830 nM
N#CC(C#N)C(=Nc1ccc(F)cc1)SCc1cccc(Br)c1 [2-[(3-bromophenyl)methylsulfanyl-[(4-fluorophenyl)amino]methylidene]propanedinitrile]	7570 nM
C=CCOc1c(OC)cc(CN=Nc2cccc(C(=O)O)c2)c(Br)c1Br	2280 nM
